Experimental data from a melting point compilation (Tetko et al.).

SMILES | melting point [°C]
CN1C(=O)C=CC1=O | 95
Cc1cc(CC(=O)O)n(C)c1C(=O)c1ccc(Cl)cc1 | 178
N=C1C=C(NC(=O)c2ccccc2)/C(=N/C(=O)c2ccccc2)C=C1NC(=O)c1ccccc1 | > 330
NCCCCCCNCCCCCCN | 33
O=CC(C=O)c1ccc2ccccc2n1 | 198 to 202
OCCc1cccc2ccccc12 | 62
CSc1nc2ccccc2c(=O)[nH]1 | 223 to 225
Cc1nn(-c2ccccc2)nc1CBr | 72 to 73
Cc1cc(O)c([N+](=O)[O-])c(=O)[nH]1 | 293 to 296
Cc1ccc(Cl)c(C(=O)O)c1 | 148 to 150
O=C(CCl)Nc1ccc(Cl)cc1 | 168 to 170
O=C(Cl)c1ccccc1Cl | -4
COc1ccc(NC(=S)NN=Cc2c(-c3ccc(Cl)cc3)[nH]c3ccccc23)cc1 | 230 to 232
Cc1cc(N)ccc1I | 50 to 55
O=C(NC(CSSCC(NC(=O)OCc1ccccc1)C(=O)O)C(=O)O)OCc1ccccc1 (configuration not stated) | 84
O=C(Nc1ccc(Br)cc1Br)C(F)(F)C(F)(F)C(F)(F)C(F)(F)C(F)(F)C(F)(F)C(F)(F)C(F)(F)F | 95
Oc1cc(O)ncn1 | 300
CCOC(=O)c1cc(Cl)cc(Cl)c1 | 35 to 36
Cc1cc(C2CCCCC2)n(O)c(=O)c1 | 144
CC1(C)c2cccc(P(C(C)(C)C)C(C)(C)C)c2Oc2c(P(C(C)(C)C)C(C)(C)C)cccc21 | 155
CCOC(=O)CC(=O)c1cc(F)c(Cl)nc1Cl | 68 to 72
O=S1(=O)CCN(Cc2cccs2)CC1 | 126 to 128
CC(=O)N1CCN(CCN2C3=C(C(=O)CC(C)(C)C3)C(c3ccc(Cl)cc3)C3=C2CC(C)(C)CC3=O)CC1 | 213
Cc1nc(-c2ccc(C(F)(F)F)cc2)sc1C(=O)CBr | 82 to 84
FC(F)(F)c1nnc(S)n1/N=C/c1ccccc1 | 233
O=C(O)C=Cc1ccc2c(c1)OCO2 | 242 to 244

SMILES | melting point [°C]
CN1CCC(CCCC2CCN(C)CC2)CC1 | 13.7
COc1cc(CCNC(=O)Cc2ccc(OC)c(OCc3ccccc3)c2)ccc1OCc1ccccc1 | 140
Cc1c(Cl)c(Cl)c(Cl)c(Cl)c1Cl | 225
O=C(O)c1ccccc1CCc1ccccc1 | 127 to 132
Fc1ccc(F)c(F)c1F | -42
Cn1c(=O)c(C2=NNC(=O)C2=CCc2ccccc2)c(O)c2ccccc21 | 249
Fc1ccc(F)cc1 | -13
N#Cc1ccc(O)c(O)c1 | 154 to 156
COc1ccccc1C(=S)N1CCCCC1 | 85
O=C(O)C1CCN(c2ncnc3ccsc23)CC1 | 248 to 249
Nc1cccc(-n2ccccc2=O)c1 | 182
N#Cc1cc(F)c(Cl)cc1Cl | 46
CC(C)(C)NC(=O)[C@@H]1CC2CCCCC2CN1 (some centres not stated) | 115 to 117
C=CC(=O)OCCOCC | -47
O=[N+]([O-])c1ccc(-c2csc3nc4ccccc4n23)cc1 | 232 to 235
C/C(Cc1ccccc1)=N\NC(N)=O | 189
Cn1ncc(C(N)=O)c1N | 231 to 232
CSC(Cl)=NS(=O)(=O)c1ccc(C)cc1 | 90 to 91
Oc1ccc(-c2nnc3n2NC(c2ccccc2O)S3)cc1 (configuration not stated) | 241
c1ccc(Cc2cccnc2)cc1 | 34
O=C(O)CSc1ccncc1 | 251 to 255
BrCCC(Br)CBr (configuration not stated) | -18
BrC(Br)c1ccccc1C(Br)Br | 116
O=C(OCCOC(=O)C(Cl)(Cl)Cl)C(Cl)(Cl)Cl | 40
Cc1ccc(C)c(N/N=C(/C#N)c2nc(C)c(/N=N/c3ccccc3)s2)c1 | 201 to 203
COC(=O)C1CC(c2ccccc2)c2ccccc21 (configuration not stated) | 91

SMILES | melting point [°C]
CC1(C)CC(=O)[C@]2(C)C=C[C@H]1N(c1ccccc1)O2 | 56.9
CC(=O)c1ccc(N2CCOCC2)cc1 | 94 to 98
CSc1nc2ccc(N)cc2s1 | 105 to 107
CCOC(=O)C(CCc1ccccc1)NC(C)C(=O)N1Cc2ccccc2CC1C(=O)O (configuration not stated) | 125
O=C(Cl)c1cc(-c2ccccc2)c(C(F)(F)F)s1 | 48 to 51
N#Cc1ccc(OCc2ccccc2)cc1 | 97
CC(C)NCC(O)c1ccc2ccccc2c1 (configuration not stated) | 108
Cc1noc(-c2ccc(C=O)cc2)n1 | 133 to 135
CCN1CCCC1CNC(=O)c1cc(S(N)(=O)=O)ccc1OC (configuration not stated) | 178
COC1=CC(=O)OC(C=Cc2ccccc2)C1 (configuration not stated) | 106
CCCCc1c(C)nc(N)nc1Cl | 162
O=C(Nc1ccccc1)c1nn(-c2ccccc2)c(-c2ccc([N+](=O)[O-])cc2)c1S(=O)(=O)c1ccccc1 | 240
CC(=O)Oc1ccccc1C(=O)Oc1ccccc1C(=O)O | 159
CN(C(=O)N(C)c1ccccc1)c1ccccc1 | 122
Cc1nc(NS(=O)(=O)c2ccc(N)cc2)oc1C | 193
Brc1c2ccccc2cc2ccccc12 | 100
Cc1c(Cl)ccc(O)c1Cl | 58
N#CC(c1ccc(Cl)nn1)c1c(Cl)cccc1Cl (configuration not stated) | 124 to 131
CC(=O)OC1CCC2(C)C(=CCC3C2CCC2(C)C3CCC2C2(CBr)OCCO2)C1 (configuration not stated) | 170 to 172
C[Si]1(C)Oc2ccc3ccccc3c2-c2c(ccc3ccccc23)O[Si](C)(C)O1 | 173
CCOC(=O)N1CCc2cc(OC)c(OC)cc2C1C#N (configuration not stated) | 110 to 112
CCOC(=O)CCCC(=O)OCC | -24.1
O=NN(CCCl)C(=O)NCCCl | 31
c1ccc(/N=N/c2ccccc2NNc2ccccc2)cc1 | 99
CC(C)(C(=O)O)c1ccc(Cl)cc1 | 127
C1COCO1 | -26

SMILES | melting point [°C]
N#Cc1ccc(-c2ccsc2)cc1 | 109 to 111
OCC(CO)(CCl)CCl | 83
COP(=S)(OC)SCC(=O)N(c1ccc(Cl)cc1)C(C)C | 51
CCOC(=O)c1cnn(-c2ccc(Cl)cc2)c1C(F)(F)F | 50 to 52
CCCCCCS(=O)(=O)O | 16.1
CC(=O)c1cc(Br)cc([N+](=O)[O-])c1O | 131
CC(=O)N1C(=O)/C(=C(\C#Cc2ccccc2)C(=O)c2ccccc2)c2ccccc21 | 189
Cc1c(N/N=C(/C(=O)c2cccc3ccccc23)S(=O)(=O)c2ccccc2)c(=O)n(-c2ccccc2)n1C | 110
CCCCC=CC=CC=CCCCCCCCC(=O)O | 71.5
COC(=O)CC(O)(CC(=O)OC)C(=O)OC | 79.3
CC(NC(=O)COC(=O)c1ccccc1)C(N)=O (configuration not stated) | 202
O=C(O)Cc1ccccc1[N+](=O)[O-] | 141
Cc1onc(-c2ccccc2)c1C(=O)CBr | 46 to 48
CSC(SC)=C(C#N)C(=O)c1cccc(C)c1 | 53 to 55
Cc1nc(Cl)c2c(C)c(C)sc2n1 | 115 to 116
NC(=O)[C@@H]1CC=CC[C@H]1N (relative stereo) | 163 to 167
c1ccc(C2Nn3c(nnc3-c3cccnc3)S2)cc1 (configuration not stated) | 220
CC(=O)Nc1ccc(I)cc1C(F)(F)F | 134 to 136
Cc1nnc(-c2ccccc2)c2noc(C)c12 | 180
C=CCO | -129
C=CC1CO1 (configuration not stated) | -135
O=C(C(=S)N1CCOCC1)c1ccccc1 | 75
CCOc1ccc(Cc2nccc3cc(OCC)c(OCC)cc23)cc1OCC | 100
CN(C)c1ccc(C=CC(=O)O)cc1 | 225 to 228
Cc1nn(Cc2cccc(C(=O)O)c2)c(C)c1Br | 224 to 226
CS(=O)(=O)c1ccc(C(=O)CBr)cc1 | 126 to 128

SMILES | melting point [°C]
O=C1c2ccccc2C1Cl (configuration not stated) | 67
Cc1oc(S(=O)(=O)N2CCOCC2)cc1C(=O)O | 184 to 186
Nc1ccc(-c2ccc(N)cc2C(F)(F)F)c(C(F)(F)F)c1 | 183
CC1(O)CNC(=O)C1 (configuration not stated) | 140
O=C(C=Cc1ccc(-c2ccccc2)o1)c1ccccc1 | 98 to 99
Nc1ncnc2c1ncn2CC(O)CO (configuration not stated) | 202 to 203
COc1ccc(C2CC(=O)c3c(O)cc(OC4OC(COC5OC(C)C(O)C(O)C5O)C(O)C(O)C4O)cc3O2)cc1O (configuration not stated) | 262
Cc1cc(C)c(CC(=O)c2oc3ccccc3c2N)c(C)c1 | 188 to 189
Oc1ccccc1/C=C/c1ccccc1 | 147
COc1ccccc1-c1ccc(C=C2C(=O)NC(=S)NC2=O)o1 | 235
CN(C)CC(O)c1ccc(O)c(O)c1 (configuration not stated) | 149
N=C(Nc1ccccc1)c1ccccc1 | 119
O=C(O)c1ccc(-c2ccccc2)nc1 | 243 to 245
O=[N+]([O-])c1ccc(C(O)C(O)CO)cc1 (configuration not stated) | 93 to 97
ON=C(CBr)c1ccc(F)cc1 | 84 to 90
CCOC(=O)CC(=O)c1cccc([N+](=O)[O-])c1 | 75 to 77
c1ccc2c(c1)cc1ccc3cccc4c5ccccc5c2c1c34 | 162
Cc1nc(NC(=O)NS(=O)(=O)c2cccs2)nc(C)c1C | 188 to 189
N#Cc1ccc([N+](=O)[O-])cc1Cl | 83 to 84
O=Cc1c2ccccc2cc2ccccc12 | 105
O=C(O)c1ccc2c(c1)OCCCO2 | 143 to 146
O=C(C1CCCCC1)N1CC(=O)N2CCc3ccccc3C2C1 (configuration not stated) | 136
CCCCC(CC)COP(=O)(Oc1ccccc1)Oc1ccccc1 (configuration not stated) | -54
